From patent publication US11352350B2, “IRAK degraders and uses thereof” (Kymera Therapeutics, Inc., priority 2018, dated 2022)
Like-named read-outs stand apart in the source and are kept apart here.

Tests used:
OCI-LY10 = assay: CTG Cell Viability Assay - OCI-LY10; type: cell-based, human; details: OCI-LY10, 4 days, read-out: CTG Cell Viability Assay - OCI-LY10: Average external-IC50
In short: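 Viability read by CellTiter-Glo luminescence after 4 days at 37° C under 5% CO2 with compound (top 10 μM final, 1:3 steps, 9 doses, DMSO 0.2%). Three-parameter logistic fit gave IC50.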

IRAK4 = IRAK4 (Homo sapiens (Human), UniProt Q9NWZ3); assay: IRAK4 MSD degradation in OCI-LY10; type: cell-based
In short: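 Remaining IRAK4 quantified by electrochemiluminescent MSD sandwich assay with two anti-IRAK4 antibodies. Compounds were dosed as 8 concentrations in 1:3 steps from a 1 to 10 μM final top on OCI-LY10 cells, incubated 4 to 24 h at 37° C. under 5% CO2. DC50 fitted with a three-parameter logistic curve.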

[1] = OCI-LY10, 4 hrs, MSD, read-out: IRAK4 MSD degradation in OCI-LY10 at 4 hrs: Average external-Abs DC50
[2] = OCI-LY10, 24 hrs, MSD, read-out: IRAK4 MSD degradation in OCI-LY10 at 24 hrs: Average external-Abs DC50
[3] = OCI-LY10, 4 hrs, read-out: IRAK4 MSD degradation in OCI-LY10 at 4 hrs: DC50
[4] = OCI-LY10, 24 hrs, read-out: IRAK4 MSD degradation in OCI-LY10 at 24 hrs: DC50

Chain of IRAK4 (Q9NWZ3 whole entry): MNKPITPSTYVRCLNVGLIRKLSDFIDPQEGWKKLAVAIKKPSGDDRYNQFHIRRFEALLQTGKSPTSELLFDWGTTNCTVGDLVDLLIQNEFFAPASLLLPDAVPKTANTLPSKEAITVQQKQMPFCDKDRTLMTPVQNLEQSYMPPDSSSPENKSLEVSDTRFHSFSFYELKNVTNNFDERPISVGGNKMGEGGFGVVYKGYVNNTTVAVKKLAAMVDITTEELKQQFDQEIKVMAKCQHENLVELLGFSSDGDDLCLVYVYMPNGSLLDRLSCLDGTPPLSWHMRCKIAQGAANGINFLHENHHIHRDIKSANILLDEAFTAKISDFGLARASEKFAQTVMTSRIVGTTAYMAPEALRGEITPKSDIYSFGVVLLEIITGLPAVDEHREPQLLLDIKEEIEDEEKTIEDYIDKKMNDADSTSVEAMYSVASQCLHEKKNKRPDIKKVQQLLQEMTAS

SMILES | IC50 (OCI-LY10; Homo sapiens, OCI-Ly10, 96 h) [nM] | DC50 (IRAK4; [1]) [nM] | DC50 (IRAK4; [2]) [nM] | DC50 (IRAK4; [3]) [nM] | DC50 (IRAK4; [4]) [nM] | IC50 (OCI-LY10) [nM]
CN(CCc1ccc(CNc2cccc3c2C(=O)N(C2CCC(=O)NC2=O)C3=O)cc1)C[C@H]1CC[C@H](n2cc(NC(=O)c3cnn4ccc(N5C[C@H]6C[C@@H]5CO6)nc34)c(C(F)F)n2)CC1 (some centres unmarked) [I-359] | < 50 | > 1000 | > 1000 |  |  | 
O=C1CCC(N2C(=O)c3cccc(N[C@H]4C[C@H](OC5CCN(C[C@H]6CC[C@H](n7cc(NC(=O)c8cnn9ccc(N%10CCOCC%10)nc89)c(C(F)F)n7)CC6)CC5)C4)c3C2=O)C(=O)N1 (some centres unmarked) [I-506] | 500 to 1000 |  |  | 10 to 100 | < 10 | 
Cn1c(=O)n(C2CCC(=O)NC2=O)c2cccc(CCCOC3CCN(C[C@H]4CC[C@H](n5cc(NC(=O)c6cnn7ccc(N8CCC(O)CC8)nc67)c(C(F)F)n5)CC4)CC3)c21 (some centres unmarked) [I-157] | > 1000 | < 10 |  |  |  | 
CN(CC1(CNc2cccc3c2C(=O)N(C2CCC(=O)NC2=O)C3=O)CCC1)C[C@H]1CC[C@H](n2cc(NC(=O)c3cnn4ccc(N5C[C@H]6C[C@@H]5CO6)nc34)c(C(F)F)n2)CC1 (some centres unmarked) [I-491] | > 1000 |  |  | 100 to 1000 | > 1000 | 
CN(C[C@H]1CC[C@H](n2cc(NC(=O)c3cnn4ccc(N5C[C@H]6C[C@@H]5CO6)nc34)c(C(F)F)n2)CC1)C1CCN(CCNc2cccc3c2C(=O)N(C2CCC(=O)NC2=O)C3=O)CC1 (some centres unmarked) [I-367] | 100 to 500 | 10 to 100 |  |  |  | 
O=C1CCC(N2C(=O)c3cccc(NCCc4ccc(CNC[C@H]5CC[C@H](n6cc(NC(=O)c7cnn8ccc(N9C[C@H]%10C[C@@H]9CO%10)nc78)c(C(F)F)n6)CC5)cc4)c3C2=O)C(=O)N1 (stereo partly drawn) [I-351, N-[3-(difluoromethyl)-1-[4-[[[4-[2-[[2-(2,6-dioxo-3-piperidyl)-1,3-dioxo-isoindolin-4-yl]amino]ethyl]phenyl]methylamino]methyl]cyclohexyl]pyrazol-4-yl]-5-[(1R,4R)-2-oxa-5-azabicyclo[2.2.1]heptan-5-yl]pyrazolo[1,5-a]pyrimidine-3-carboxamide] | > 1000 | > 1000 |  |  |  | 
NCC#Cc1ccc(-n2cc(NC(=O)c3coc(-c4ccnc(NCC5CC5)c4)n3)c(C(F)F)n2)cc1 [I-391, N-[l-[4-(3-aminoprop-1-ynyl)phenyl]-3-(difluoromethyl)pyrazol-4-yl]-2-[2-(cyclopropylmethylamino)-4-pyridyl]oxazole-4-carboxamide] | > 1000 | > 1000 | > 1000 |  |  | 
O=C1CCC(N2C(=O)c3cccc(NCCCOCCCOCCCN4CCC(n5cc(NC(=O)c6cnn7ccc(N8C[C@H]9C[C@@H]8CO9)nc67)c(C(F)F)n5)CC4)c3C2=O)C(=O)N1 (some centres unmarked) [I-321] |  | 100 to 1000 |  |  |  | > 1000
CN(C[C@H]1CC[C@H](n2cc(NC(=O)c3cnn4ccc(N5CCOCC5)nc34)c(C(F)F)n2)CC1)[C@H]1CC[C@@H](Nc2cccc3c2C(=O)N(C2CCC(=O)NC2=O)C3=O)CC1 (some centres unmarked) [I-350] | > 1000 | 100 to 1000 | 10 to 100 |  |  | 
O=C1CCC(N2C(=O)c3cccc(NCCCOCCCN4CCN(c5ncc(-n6cc(NC(=O)c7cnn8ccc(N9CCOCC9)nc78)c(C(F)F)n6)cn5)CC4)c3C2=O)C(=O)N1 (centres unmarked) [I-456] | < 50 |  |  | 100 to 1000 | 100 to 1000 | 
O=C1CCC(N2C(=O)c3cccc(NCCOC4CCN(C[C@H]5CC[C@H](n6cc(NC(=O)c7cnn8ccc(N9C[C@H]%10C[C@@H]9CO%10)nc78)c(C(F)F)n6)CC5)CC4)c3C2=O)C(=O)N1 (some centres unmarked) [I-299] | 50 to 100 | 10 to 100 |  |  |  | 
CC[C@@H]1[C@H](F)C(=O)N[C@@H]1COc1ncc(C#C[C@H]2CC[C@H](CN3CCC(OCCCc4cccc5c4n(C)c(=O)n5C4CCC(=O)NC4=O)CC3)CC2)c2cc(C(N)=O)c(OC)cc12 (some centres unmarked) [I-186] | > 1000 | 10 to 100 | < 10 |  |  | 
CN(CCC(C)(C)O)c1ccn2ncc(C(=O)Nc3cn([C@H]4CC[C@H](CN(C)[C@H]5CC[C@H](Nc6cccc7c6C(=O)N(C6CCC(=O)NC6=O)C7=O)CC5)CC4)nc3C(F)F)c2n1 (some centres unmarked) [I-504] | 100 to 500 |  |  | > 1000 | 10 to 100 | 
CN(Cc1ccc(CCNc2cccc3c2C(=O)N(C2CCC(=O)NC2=O)C3=O)cc1)C[C@H]1CC[C@H](n2cc(NC(=O)c3cnn4ccc(N5CCOCC5)nc34)c(C(F)F)n2)CC1 (some centres unmarked) [I-325] | > 1000 | 100 to 1000 | 10 to 100 |  |  | 
CN(C[C@H]1CC[C@H](n2cc(NC(=O)c3coc(-c4ccnc(NCC5CC5)c4)n3)c(C(F)F)n2)CC1)C1CCN(Cc2cccc3c2n(C)c(=O)n3C2CCC(=O)NC2=O)CC1 (some centres unmarked) [I-400] | < 50 | < 10 |  |  |  | 
CN(CCN1CCO[C@@H](CCNc2cccc3c2C(=O)N(C2CCC(=O)NC2=O)C3=O)C1)C[C@H]1CC[C@H](n2cc(NC(=O)c3cnn4ccc(N5C[C@H]6C[C@@H]5CO6)nc34)c(C(F)F)n2)CC1 (some centres unmarked) [I-337] | 50 to 100 | 100 to 1000 | 10 to 100 |  |  | 
N#CCc1ccc2c(N[C@H]3CC[C@H](N4CCN(C(=O)COCCOCCOCCOCCNc5cccc6c5C(=O)N(C5CCC(=O)NC5=O)C6=O)CC4)CC3)ncnc2c1 (some centres unmarked) [I-52] | 100 to 500 | > 1000 |  |  |  | 
O=C1CCC(N2C(=O)c3cccc(CCCOC4CCN(C[C@H]5CC[C@H](n6cc(NC(=O)c7coc(-c8ccnc(NCC9CC9)c8)n7)c(C(F)F)n6)CC5)CC4)c3C2=O)C(=O)N1 (some centres unmarked) [I-171] | 100 to 500 | 10 to 100 |  |  |  | 
Cn1c(=O)n(C2CCC(=O)NC2=O)c2ccc(CN3CCC(CCCN4CCC(n5cc(NC(=O)c6coc(-c7ccnc(NCC8CC8)c7)n6)c(C(F)F)n5)CC4)CC3)cc21 (centres unmarked) [I-254] | 100 to 500 | 10 to 100 |  |  |  | 
Cn1c(=O)n(C2CCC(=O)NC2=O)c2cccc(CCCOC3CCN(C[C@H]4CC[C@H](n5cc(NC(=O)c6cnn7ccc(N[C@@H]8CCCC[C@H]8O)nc67)c(C(F)F)n5)CC4)CC3)c21 (some centres unmarked) [I-293] | > 1000 | 10 to 100 |  |  |  | 
Cc1ccc(-n2nc(C3CCN(CCCCCOCCCc4ccc5c(c4)n(C)c(=O)n5C4CCC(=O)NC4=O)CC3)cc2NC(=O)c2cnn3cccnc23)nc1 (centres unmarked) [I-273] | > 1000 | > 1000 | > 1000 |  |  | 
CN(C[C@H]1CC[C@H](n2cc(NC(=O)c3cnn4ccc(N5C[C@H]6C[C@@H]5CO6)nc34)c(C(F)F)n2)CC1)C1CCC(CNc2cccc3c2C(=O)N(C2CCC(=O)NC2=O)C3=O)CC1 (some centres unmarked) [I-324] | < 50 | 100 to 1000 |  |  |  | 
CN(CCOCCNCc1cccc2c1n(C)c(=O)n2C1CCC(=O)NC1=O)C[C@H]1CC[C@H](n2cc(NC(=O)c3coc(-c4ccnc(NCC5CC5)c4)n3)c(C(F)F)n2)CC1 (some centres unmarked) [I-237] | > 1000 | < 10 |  |  |  | 
Cn1c(=N)n(C2CCC(=O)NC2=O)c2ccc(CCCOCCCN3CCC(n4cc(NC(=O)c5cnn6ccc(N7CCOCC7)nc56)c(C(F)F)n4)CC3)cc21 (centres unmarked) [I-179] | > 1000 | 100 to 1000 |  |  |  | 
CN(CC1CC1)c1ccn2ncc(C(=O)Nc3cn([C@H]4CC[C@H](CN(C)[C@H]5CC[C@H](Nc6cccc7c6C(=O)N(C6CCC(=O)NC6=O)C7=O)CC5)CC4)nc3C(F)F)c2n1 (some centres unmarked) [I-455] | 50 to 100 |  |  | 10 to 100 | 10 to 100 | 
Cn1c(=O)n(C2CCC(=O)NC2=O)c2cccc(CN3CCC(CCN4CCC(n5cc(NC(=O)c6cnn7ccc(N8CCOCC8)nc67)c(C(F)F)n5)CC4)CC3)c21 (centres unmarked) [I-177] | 100 to 500 | < 10 |  |  |  | 
CC[C@@H]1CC(=O)N[C@@H]1COc1ncc(C#C[C@H]2CC[C@@H](CN3CCC(OCCCc4cccc5c4n(C)c(=O)n5C4CCC(=O)NC4=O)CC3)CC2)c2cc(C(N)=O)c(OC)cc12 (some centres unmarked) [I-202] | > 1000 | 100 to 1000 | 10 to 100 |  |  | 
Cn1c(=O)n(C2CCC(=O)NC2=O)c2ccc(CN3CCN(CCO[C@H]4C[C@H](N(C)C[C@H]5CC[C@H](n6cc(NC(=O)c7coc(-c8ccnc(NCC9CC9)c8)n7)c(C(F)F)n6)CC5)C4)CC3)cc21 (some centres unmarked) [I-252] | 100 to 500 | < 10 |  |  |  | 
CC[C@@H]1[C@H](F)C(=O)N[C@@H]1COc1ncc(C#C[C@H]2CC[C@H](CN(C)CCCc3ccc(CNc4cccc5c4C(=O)N(C4CCC(=O)NC4=O)C5=O)cc3)CC2)c2cc(C(N)=O)c(OC)cc12 (some centres unmarked) [I-338] | < 50 | 100 to 1000 |  |  |  | 
O=C1CCC(N2C(=O)c3cccc(NCc4ccc(CN5CCN(C[C@H]6CC[C@H](n7cc(NC(=O)c8cnn9ccc(N%10CCOCC%10)nc89)c(C(F)F)n7)CC6)CC5)cc4)c3C2=O)C(=O)N1 (some centres unmarked) [I-356] | < 50 | > 1000 | 10 to 100 |  |  | 
